Paper PMC4503722, “Novel Phenotypic Outcomes Identified for a Public Collection of Approved Drugs from a Publicly Accessible Panel of Assays” (PLoS ONE, 2015)
Like-named read-outs stand apart in the source and are kept apart here.

Tests used:
[1] = tested on: endothelial tube formation in co-cultures of ECFCs and ADSCs treated with VEGF; assay: cells; format: cell-based, human
[2] = tested on: nuclear β-catenin in C2C12 cells; assay: cells; format: cell-based; conditions: for WntCondMedia_bCatenin C2C12 IC50/EC50: assay number 5
[3] = tested on: alkaline phosphatase (ALP) activity in C2C12 cells; format: cell-based; conditions: for WntCondMedia_Alk Phos C2C12 IC50/EC50: assay number 6
[4] = tested on: HeLa cells; assay: cells; format: cell-based; conditions: for Hela CellCycMod PI 2N IC50/EC50: assay number 14; for Hela CellCycMod PI S Phase IC50/EC50: assay number 15; for Hela CellCycMod PI 4N IC50/EC50: assay number 16; for Hela CellCycMod PI MI IC50/EC50: assay number 17; for Hela CellCycMod PI Cell Number IC50/EC50: assay number 18
[5] = tested on: DLD-1; assay: cells; format: cell-based; conditions: for Basal_Viability ATP DLD-1 IC50/EC50: assay number 23
[6] = tested on: SW480; assay: cells; format: cell-based; conditions: for Basal_Viability ATP SW480 IC50/EC50: assay number 24
[7] = tested on: HCT116; assay: cells; format: cell-based; conditions: for Basal_Viability ATP HCT116 IC50/EC50: assay number 25
[8] = tested on: HCT116 cells treated with a GSK3β inhibitor; assay: cells; format: cell-based; conditions: for GSK3b inh pretreated_Viability ATP HCT116 IC50/EC50: assay number 26, GSK3b inhibitor pretreated
[9] = tested on: Colo320; assay: cells; format: cell-based; conditions: for Basal_Viability ATP Colo 320 IC50/EC50: assay number 27
[10] = tested on: HT-29; assay: cells; format: cell-based; conditions: for Basal_Viability ATP HT-29 IC50/EC50: assay number 28
[11] = tested on: RKO; assay: cells; format: cell-based; conditions: for Basal_Viability ATP RKO IC50/EC50: assay number 29
[12] = tested on: SNU-C1; assay: cells; format: cell-based; conditions: for Basal_Viability ATP SNU-C1 IC50/EC50: assay number 30
[13] = molecular target: T1, hp70S6K1 (RPS6KB1) (Homo sapiens, UniProt P23443); assay: Cerep LANCE kinase assay hp70S6K1 (S1 assay 31); format: biochemical; conditions: for hp70S6K1 LANCE IC50/EC50: assay number 31
T1 construct: purchased Cerep (LANCE kinase assay platform, contract assay)

[14] = molecular target: T2, hKDR (Homo sapiens, UniProt P35968); assay: Cerep LANCE kinase assay hKDR (S1 assay 32); format: biochemical; conditions: for hKDR LANCE IC50/EC50: assay number 32
T2 construct: purchased Cerep (LANCE kinase assay platform, contract assay)

[15] = molecular target: T3, hJAK2 (Homo sapiens, UniProt O60674); assay: Cerep LANCE kinase assay hJAK2 (S1 assay 33); format: biochemical; conditions: for hJAK2 LANCE IC50/EC50: assay number 33
T3 construct: purchased Cerep (LANCE kinase assay platform, contract assay)

[16] = molecular target: T4, hGSK3b (Homo sapiens, UniProt P49841); assay: Cerep LANCE kinase assay hGSK3b (S1 assay 34); format: biochemical; conditions: for hGSK3b LANCE IC50/EC50: assay number 34
T4 construct: purchased Cerep (LANCE kinase assay platform, contract assay)

[17] = molecular target: T5, hFLT3 (Homo sapiens, UniProt P36888); assay: Cerep LANCE kinase assay hFLT3 (S1 assay 35); format: biochemical; conditions: for hFLT3 LANCE IC50/EC50: assay number 35
T5 construct: purchased Cerep (LANCE kinase assay platform, contract assay)

[18] = tested on: ECFC/ADSC co-culture cell nuclei number

T3 sequence (O60674 whole entry): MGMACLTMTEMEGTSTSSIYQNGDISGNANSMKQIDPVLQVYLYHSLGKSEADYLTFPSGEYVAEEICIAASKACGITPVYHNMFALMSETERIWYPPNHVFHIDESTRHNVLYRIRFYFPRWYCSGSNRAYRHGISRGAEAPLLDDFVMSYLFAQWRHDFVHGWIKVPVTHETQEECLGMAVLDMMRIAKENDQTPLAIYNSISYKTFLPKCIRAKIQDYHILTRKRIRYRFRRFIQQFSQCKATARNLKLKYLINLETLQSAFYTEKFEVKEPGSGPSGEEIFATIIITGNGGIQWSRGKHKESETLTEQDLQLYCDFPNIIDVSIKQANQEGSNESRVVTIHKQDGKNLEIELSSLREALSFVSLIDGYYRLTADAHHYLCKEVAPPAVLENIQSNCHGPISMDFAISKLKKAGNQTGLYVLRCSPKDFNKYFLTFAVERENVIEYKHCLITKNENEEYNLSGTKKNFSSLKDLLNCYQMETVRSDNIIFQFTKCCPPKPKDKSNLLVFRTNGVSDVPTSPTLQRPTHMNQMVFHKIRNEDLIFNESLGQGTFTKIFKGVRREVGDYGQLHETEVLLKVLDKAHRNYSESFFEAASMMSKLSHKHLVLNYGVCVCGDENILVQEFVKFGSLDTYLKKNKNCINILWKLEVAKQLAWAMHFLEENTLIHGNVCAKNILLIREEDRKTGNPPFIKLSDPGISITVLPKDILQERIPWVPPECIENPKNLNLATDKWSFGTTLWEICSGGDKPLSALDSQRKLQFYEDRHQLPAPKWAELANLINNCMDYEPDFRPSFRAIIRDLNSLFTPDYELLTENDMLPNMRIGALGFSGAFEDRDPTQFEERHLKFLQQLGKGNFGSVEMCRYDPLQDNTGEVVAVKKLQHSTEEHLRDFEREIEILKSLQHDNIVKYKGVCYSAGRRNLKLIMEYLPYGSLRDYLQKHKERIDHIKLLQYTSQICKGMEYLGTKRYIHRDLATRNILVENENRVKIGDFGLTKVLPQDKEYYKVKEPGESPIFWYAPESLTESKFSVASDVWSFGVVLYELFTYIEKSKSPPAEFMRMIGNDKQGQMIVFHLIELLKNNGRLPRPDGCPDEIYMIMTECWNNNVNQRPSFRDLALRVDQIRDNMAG
T2 sequence (P35968 20-1356): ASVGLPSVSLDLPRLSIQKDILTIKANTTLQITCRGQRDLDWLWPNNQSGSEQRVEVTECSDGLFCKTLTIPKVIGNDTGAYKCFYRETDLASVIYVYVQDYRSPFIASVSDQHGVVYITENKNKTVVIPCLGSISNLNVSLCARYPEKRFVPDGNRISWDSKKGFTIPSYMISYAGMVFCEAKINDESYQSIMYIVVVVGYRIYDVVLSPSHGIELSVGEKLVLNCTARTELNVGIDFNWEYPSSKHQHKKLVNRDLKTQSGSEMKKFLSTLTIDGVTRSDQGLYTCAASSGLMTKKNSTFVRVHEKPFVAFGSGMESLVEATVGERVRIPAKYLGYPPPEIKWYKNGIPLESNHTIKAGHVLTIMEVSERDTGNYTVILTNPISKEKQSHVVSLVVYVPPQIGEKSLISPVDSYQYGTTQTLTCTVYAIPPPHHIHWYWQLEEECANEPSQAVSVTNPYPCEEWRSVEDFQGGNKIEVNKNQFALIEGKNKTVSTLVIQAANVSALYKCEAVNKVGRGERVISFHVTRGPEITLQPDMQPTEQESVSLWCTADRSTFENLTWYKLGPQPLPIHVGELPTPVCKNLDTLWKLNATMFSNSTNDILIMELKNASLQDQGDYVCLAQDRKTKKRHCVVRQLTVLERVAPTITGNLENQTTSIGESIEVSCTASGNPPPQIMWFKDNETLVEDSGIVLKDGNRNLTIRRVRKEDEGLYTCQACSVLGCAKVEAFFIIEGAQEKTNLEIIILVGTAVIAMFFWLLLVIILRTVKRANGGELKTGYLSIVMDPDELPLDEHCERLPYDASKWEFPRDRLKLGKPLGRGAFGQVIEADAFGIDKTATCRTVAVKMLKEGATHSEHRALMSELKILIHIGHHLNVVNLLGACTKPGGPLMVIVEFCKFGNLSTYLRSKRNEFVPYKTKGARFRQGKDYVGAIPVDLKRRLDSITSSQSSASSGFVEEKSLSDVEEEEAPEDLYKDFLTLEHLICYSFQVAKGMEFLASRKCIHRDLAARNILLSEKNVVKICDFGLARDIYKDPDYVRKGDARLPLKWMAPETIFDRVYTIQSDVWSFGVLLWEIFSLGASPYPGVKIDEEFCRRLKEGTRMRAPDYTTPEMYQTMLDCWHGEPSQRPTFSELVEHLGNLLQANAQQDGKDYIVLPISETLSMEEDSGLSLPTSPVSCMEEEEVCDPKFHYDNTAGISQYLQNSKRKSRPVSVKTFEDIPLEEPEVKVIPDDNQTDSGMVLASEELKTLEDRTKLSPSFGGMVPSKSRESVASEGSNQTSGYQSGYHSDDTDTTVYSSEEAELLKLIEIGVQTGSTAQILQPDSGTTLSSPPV
T1 sequence (P23443 whole entry): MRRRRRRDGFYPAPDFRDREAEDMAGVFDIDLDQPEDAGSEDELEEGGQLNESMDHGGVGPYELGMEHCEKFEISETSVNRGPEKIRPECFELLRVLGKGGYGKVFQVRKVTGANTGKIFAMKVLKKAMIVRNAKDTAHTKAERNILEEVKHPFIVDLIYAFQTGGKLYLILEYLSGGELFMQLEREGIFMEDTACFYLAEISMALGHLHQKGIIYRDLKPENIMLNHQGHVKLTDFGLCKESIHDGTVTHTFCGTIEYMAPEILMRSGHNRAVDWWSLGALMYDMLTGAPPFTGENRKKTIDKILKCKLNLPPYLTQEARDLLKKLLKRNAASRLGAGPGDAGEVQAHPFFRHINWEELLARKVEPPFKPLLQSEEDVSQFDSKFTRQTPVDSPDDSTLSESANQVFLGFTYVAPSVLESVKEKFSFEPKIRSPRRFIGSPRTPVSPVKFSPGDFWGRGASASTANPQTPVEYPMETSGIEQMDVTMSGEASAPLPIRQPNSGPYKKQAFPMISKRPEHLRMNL
T5 sequence (P36888 27-993): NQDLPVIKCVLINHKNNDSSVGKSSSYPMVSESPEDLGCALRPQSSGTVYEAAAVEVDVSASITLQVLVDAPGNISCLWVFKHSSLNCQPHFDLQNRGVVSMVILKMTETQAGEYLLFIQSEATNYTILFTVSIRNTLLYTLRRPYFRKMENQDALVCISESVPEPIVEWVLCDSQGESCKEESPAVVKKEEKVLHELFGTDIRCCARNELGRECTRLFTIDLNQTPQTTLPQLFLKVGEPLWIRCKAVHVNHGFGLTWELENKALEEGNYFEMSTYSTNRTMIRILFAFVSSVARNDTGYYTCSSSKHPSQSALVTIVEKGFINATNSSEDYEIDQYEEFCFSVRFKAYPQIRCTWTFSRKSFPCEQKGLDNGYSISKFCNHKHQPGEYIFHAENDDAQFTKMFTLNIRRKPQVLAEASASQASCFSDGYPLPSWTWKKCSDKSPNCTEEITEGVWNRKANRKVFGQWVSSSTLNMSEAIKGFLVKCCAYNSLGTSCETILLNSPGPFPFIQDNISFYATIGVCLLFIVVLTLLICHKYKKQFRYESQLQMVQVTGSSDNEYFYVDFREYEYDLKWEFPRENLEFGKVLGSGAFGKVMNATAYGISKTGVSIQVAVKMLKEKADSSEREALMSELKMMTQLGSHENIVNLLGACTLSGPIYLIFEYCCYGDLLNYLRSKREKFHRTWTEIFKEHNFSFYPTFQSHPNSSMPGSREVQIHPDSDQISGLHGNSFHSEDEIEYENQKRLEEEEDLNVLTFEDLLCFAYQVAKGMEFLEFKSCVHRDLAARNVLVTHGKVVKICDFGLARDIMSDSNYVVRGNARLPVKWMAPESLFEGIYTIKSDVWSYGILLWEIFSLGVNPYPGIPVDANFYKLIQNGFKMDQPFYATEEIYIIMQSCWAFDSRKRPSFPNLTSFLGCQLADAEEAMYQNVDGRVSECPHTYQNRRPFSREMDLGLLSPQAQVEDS
T4 sequence (P49841 whole entry): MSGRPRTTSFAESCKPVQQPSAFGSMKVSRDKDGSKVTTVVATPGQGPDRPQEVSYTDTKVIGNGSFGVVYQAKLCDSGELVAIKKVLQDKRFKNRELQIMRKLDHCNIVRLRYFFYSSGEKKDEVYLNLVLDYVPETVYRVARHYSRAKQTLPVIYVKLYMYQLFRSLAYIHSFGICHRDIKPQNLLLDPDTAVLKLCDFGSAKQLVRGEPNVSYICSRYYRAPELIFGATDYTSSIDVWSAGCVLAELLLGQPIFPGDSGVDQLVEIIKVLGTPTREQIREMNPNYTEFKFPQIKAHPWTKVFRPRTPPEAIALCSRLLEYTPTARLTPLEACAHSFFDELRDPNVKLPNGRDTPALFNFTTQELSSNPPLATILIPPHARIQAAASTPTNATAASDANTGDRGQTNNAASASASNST

In the case of `O=C1c2c(O)ccc(O)c2C(=O)c2c(NCCNCCO)ccc(NCCNCCO)c21` [NCGC00015693-09], the “VEGF_ADSC\ECFC Angio CD31 TubeArea IC50/EC50” value [1] is reported as 0.0044 µM, the “WntCondMedia_bCatenin C2C12 IC50/EC50” value ([2]; concentration response) is reported as 0.0303 µM and the “WntCondMedia_Alk Phos C2C12 IC50/EC50” value ([3]; concentration response) is reported as 1.509 µM. For the same compound, the “Hela CellCycMod PI 2N IC50/EC50” value ([4]; 2N) was over 10 µM, the “Hela CellCycMod PI S Phase IC50/EC50” value [4] was over 10 µM and the “Hela CellCycMod PI 4N IC50/EC50” value ([4]; 4N) was over 10 µM. For the same compound, the “Hela CellCycMod PI MI IC50/EC50” value ([4]; MI) was over 10 µM, the “Hela CellCycMod PI Cell Number IC50/EC50” value [4] was 0.0031 µM and the “Basal_Viability ATP DLD-1 IC50/EC50” value ([5]; basal) was 1.6038 µM. For the same compound, the “Basal_Viability ATP SW480 IC50/EC50” value ([6]; basal) was 1.8306 µM, the “Basal_Viability ATP HCT116 IC50/EC50” value ([7]; basal) was 1.2335 µM and the “GSK3b inh pretreated_Viability ATP HCT116 IC50/EC50” value [8] was 0.001 µM. For the same compound, the “Basal_Viability ATP Colo 320 IC50/EC50” value ([9]; basal) was 7.4079 µM, the “Basal_Viability ATP HT-29 IC50/EC50” value ([10]; basal) was 7.591 µM and the “Basal_Viability ATP RKO IC50/EC50” value ([11]; basal) was 1.0291 µM. The “Basal_Viability ATP SNU-C1 IC50/EC50” value ([12]; basal) was 1.718 µM, the “hp70S6K1 LANCE IC50/EC50” value [13] was over 20 µM and the “hKDR LANCE IC50/EC50” value [14] was over 20 µM. For the same compound, the “hJAK2 LANCE IC50/EC50” value [15] was over 20 µM, the “hGSK3b LANCE IC50/EC50” value [16] was over 20 µM and the “hFLT3 LANCE IC50/EC50” value [17] was over 20 µM. For the same compound, the “VEGF_ADSC\ECFC Angio Hoechst NucArea IC50/EC50” value [18] was 0.01274 µM.
In the case of `CCCSc1ccc2nc(NC(=O)OC)[nH]c2c1` [NCGC00016876-12], the “IC50/EC50, VEGF_ADSC\ECFC Angio CD31 TubeArea (assay number 2)” value [1] is reported as 0.3554 µM, the “IC50/EC50, WntCondMedia_bCatenin C2C12 (assay number 5)” value ([2]; concentration response) is reported as 1.2764 µM and the “IC50/EC50, WntCondMedia_Alk Phos C2C12 (assay number 6)” value ([3]; concentration response) is reported as 12.2685 µM. For the same compound, the “IC50/EC50, Hela CellCycMod PI 2N (assay number 14)” value ([4]; 2N) was 0.0656 µM, the “IC50/EC50, Hela CellCycMod PI 4N (assay number 16)” value ([4]; 4N) was 0.0612 µM and the “IC50/EC50, Hela CellCycMod PI Cell Number (assay number 18)” value ([4]; Cell Number) was 0.0377 µM. The “IC50/EC50, Hela CellCycMod PI MI (assay number 17)” value ([4]; MI) was 0.0615 µM, the “IC50/EC50, Hela CellCycMod PI S Phase (assay number 15)” value ([4]; S Phase) was over 10 µM and the “IC50/EC50, Basal_Viability ATP DLD-1 (assay number 23)” value ([5]; basal) was 0.1085 µM. The “IC50/EC50, Basal_Viability ATP SW480 (assay number 24)” value ([6]; basal) was over 20 µM, the “IC50/EC50, Basal_Viability ATP HCT116 (assay number 25)” value ([7]; basal) was 0.1118 µM and the “IC50/EC50, GSK3b inh pretreated_Viability ATP HCT116 (assay number 26)” value ([8]; GSK3b inh pretreated) was 0.1579 µM. The “IC50/EC50, Basal_Viability ATP Colo 320 (assay number 27)” value ([9]; basal) was 0.502 µM, the “IC50/EC50, Basal_Viability ATP HT-29 (assay number 28)” value ([10]; basal) was over 20 µM and the “IC50/EC50, Basal_Viability ATP RKO (assay number 29)” value ([11]; basal) was 0.1653 µM. The “IC50/EC50, Basal_Viability ATP SNU-C1 (assay number 30)” value ([12]; basal) was over 20 µM, the “IC50/EC50, hp70S6K1 LANCE (assay number 31)” value [13] was over 20 µM and the “IC50/EC50, hKDR LANCE (assay number 32)” value [14] was over 20 µM. For the same compound, the “IC50/EC50, hJAK2 LANCE (assay number 33)” value [15] was over 20 µM, the “IC50/EC50, hGSK3b LANCE (assay number 34)” value [16] was over 20 µM and the “IC50/EC50, hFLT3 LANCE (assay number 35)” value [17] was over 20 µM. The “IC50/EC50, VEGF_ADSC\ECFC Angio Hoechst NucArea (assay number 3)” value [18] was over 10 µM.
In the case of `COc1cccc2c1C(=O)c1c(O)c3c(c(O)c1C2=O)C[C@@](O)(C(C)=O)C[C@@H]3O[C@H]1C[C@H](N)[C@H](O)[C@H](C)O1` [NCGC00024246-15], the “WntCondMedia_bCatenin C2C12 IC50/EC50” value ([2]; concentration response) is reported as 0.3691 µM, the “WntCondMedia_Alk Phos C2C12 IC50/EC50” value ([3]; concentration response) is reported as 0.0061 µM and the “Hela CellCycMod PI 2N IC50/EC50” value ([4]; 2N) is reported as 0.01016 µM. For the same compound, the “Hela CellCycMod PI S Phase IC50/EC50” value [4] was 9.6046 µM, the “Hela CellCycMod PI 4N IC50/EC50” value ([4]; 4N) was 0.04645 µM and the “Hela CellCycMod PI MI IC50/EC50” value ([4]; MI) was 0.3738 µM. The “Hela CellCycMod PI Cell Number IC50/EC50” value [4] was 0.00805 µM, the “Basal_Viability ATP DLD-1 IC50/EC50” value ([5]; basal) was 0.188 µM and the “Basal_Viability ATP SW480 IC50/EC50” value ([6]; basal) was 1.466 µM. The “Basal_Viability ATP HCT116 IC50/EC50” value ([7]; basal) was 0.05086 µM, the “GSK3b inh pretreated_Viability ATP HCT116 IC50/EC50” value [8] was 0.05538 µM and the “Basal_Viability ATP Colo 320 IC50/EC50” value ([9]; basal) was 9.2476 µM. For the same compound, the “Basal_Viability ATP HT-29 IC50/EC50” value ([10]; basal) was 0.6485 µM, the “Basal_Viability ATP RKO IC50/EC50” value ([11]; basal) was 0.1182 µM and the “Basal_Viability ATP SNU-C1 IC50/EC50” value ([12]; basal) was 0.3376 µM. For the same compound, the “hp70S6K1 LANCE IC50/EC50” value [13] was over 20 µM, the “hKDR LANCE IC50/EC50” value [14] was over 20 µM and the “hJAK2 LANCE IC50/EC50” value [15] was over 20 µM. For the same compound, the “hGSK3b LANCE IC50/EC50” value [16] was over 20 µM and the “hFLT3 LANCE IC50/EC50” value [17] was over 20 µM.
In the case of `O=[N+]([O-])c1ccc(O)c2ncccc12` [NCGC00160664-03], the “IC50/EC50, WntCondMedia_bCatenin C2C12 (assay number 5)” value [2] is reported as over 20 µM, the “IC50/EC50, WntCondMedia_Alk Phos C2C12 (assay number 6)” value [3] is reported as 6.3615 µM and the “IC50/EC50, Hela CellCycMod PI 2N (assay number 14)” value [4] is reported as 1.7028 µM. The “IC50/EC50, Hela CellCycMod PI 4N (assay number 16)” value [4] was over 10 µM, the “IC50/EC50, Hela CellCycMod PI Cell Number (assay number 18)” value [4] was 0.2952 µM and the “IC50/EC50, Hela CellCycMod PI MI (assay number 17)” value [4] was over 10 µM. The “IC50/EC50, Hela CellCycMod PI S Phase (assay number 15)” value [4] was over 10 µM, the “IC50/EC50, Basal_Viability ATP DLD-1 (assay number 23)” value [5] was 1.375 µM and the “IC50/EC50, Basal_Viability ATP SW480 (assay number 24)” value [6] was 0.6046 µM. The “IC50/EC50, Basal_Viability ATP HCT116 (assay number 25)” value [7] was 0.9206 µM, the “IC50/EC50, GSK3b inh pretreated_Viability ATP HCT116 (assay number 26)” value [8] was 0.3751 µM and the “IC50/EC50, Basal_Viability ATP Colo 320 (assay number 27)” value [9] was 0.6837 µM. The “IC50/EC50, Basal_Viability ATP HT-29 (assay number 28)” value [10] was over 20 µM, the “IC50/EC50, Basal_Viability ATP RKO (assay number 29)” value [11] was 0.7101 µM and the “IC50/EC50, Basal_Viability ATP SNU-C1 (assay number 30)” value [12] was over 20 µM. For the same compound, the “IC50/EC50, hp70S6K1 LANCE (assay number 31)” value [13] was over 20 µM, the “IC50/EC50, hKDR LANCE (assay number 32)” value [14] was over 20 µM and the “IC50/EC50, hJAK2 LANCE (assay number 33)” value [15] was over 20 µM. For the same compound, the “IC50/EC50, hGSK3b LANCE (assay number 34)” value [16] was over 20 µM and the “IC50/EC50, hFLT3 LANCE (assay number 35)” value [17] was over 20 µM.
